Data set [1] is described as follows: tissue distribution of orally administered ^34S-labeled GSSSG by LC-MS/MS. In kind it is in vivo, mice. The settings on record: 2 hours after oral ^34S-labelled GSSSG 50 mg/kg; mice. The procedure:
To determine the tissue distribution of orally-administered GSSSG, ^34S-labelled GSSSG was administered by gavage to each of four mice. ^34S-labelled GSSSG was synthesized and provided by Kyowa Hakko Bio CO., LTD. Two hours after a single dose of ^34S-GSSSG, DRG, lumber spinal cord, brain, liver, and plasma were obtained and snap frozen for later analysis.
We examined whether administrated GSSSG via oral gavage reaches peripheral nervous system using liquid chromatography with tandem mass spectrometry (LC-MS/MS). Fifty mg/kg of ^34S-labeled GSSSG (in which the middle sulfur, that is a sulfane sulfur, was replaced to ^34S; G-^32S-^34S-^32S-G) was orally administered to mice. Two hours after administration, plasma and tissue from liver, brain, lumbar spinal cord, and lumbar DRG (L1 to L6) were collected and immediately frozen at −80° C. Tissues were homogenized with 5 mM of β-(4-hydroxyphenyl)ethyl iodoacetamide (HPE-IAM) (Santa Cruz, Cat No. SC-473766) and incubated for 20 minutes at 37° C. to promote HPE-IAM reaction that stabilizes persulfide residues. Proteins were removed by centrifugation at 15,000 g for 10 minutes at 4° C., and total protein concentration was measured by BCA assay. The supernatant was diluted by 0.1% formic acid for LC-MS/MS analysis. The amount of ^34S-labeled GSSSG was quantified in selective reaction monitoring (SRM) with precursor ion (647.14 m/z), product ion (389.1 m/z), and HCD (21 v) and normalized by protein concentration. The ratio of ^34S-labeled reactive sulfur species to endogenous (^32S) reactive sulfur species (GSSH, CysSSH, and CysSSSCys) were also calculated from their peak area measured by Dionex UltiMate 3000 RS UPLC-Orbitrap Exploris 480 mass spectrometer (Thermo Scientific Scientific, Waltham, MA, USA). In brief, samples were subjected to the UPLC system with a Hypersil Gold C-18 (100×2.1 mm, 3.0 μm, Thermo Fisher Scientific) column and they were eluted by using a linear methanol gradient of the mobile phase (0-90%, 15 minutes) in the presence of 0.1% formic acid at a flow rate of 0.2 ml/minutes at 40 degrees. The raw data were obtained by Compound Discoverer software 3.3. Molecular weight of reactive sulfur species combined with HPE-IAM were reported in previous studies.

For data set [2], the system named is MDA-MB-231 human breast cancer cells. As to the kind of experiment: MDA-MB-231 cell viability by LDH Cytotoxicity Detection assay. It counts as cell-based. As to conditions: 24 hours incubation. The procedure: To examine whether co-administration of GSSSG affects anti-tumor effects of paclitaxel, we conducted experiments using MDA-MB-231, a human breast cancer cell line (HTB-26, ATCC). Cells were cultured in the medium of 90% RPMI1640 (Corning, Cat No. 10-040-CV), 10% FBS, and 1% penicillin/streptomycin. After being seeded into a 96-well plate at the density of 20,000/well and cultured overnight, they were exposed to different concentrations of paclitaxel (0.125 μM, 0.25 μM, 0.5 μM, 1 μM, and 2 μM) and incubated for 24 hours. Cell viability was evaluated by LDH Cytotoxicity Detection Kit (Roche, Cat No. 11644793001). Briefly, a plate was centrifuged at 250×g for 10 minutes. Cells were washed with PBS and incubated with 100 μl of 1% Triton X-100 at 37° C. for 30 minutes. After mixing with assay enzyme for 30 minutes at 25° C., absorbance was measured at wavelength 492 nm to determine cell viability. Inhibitory effects of paclitaxel were calculated by half-maximal inhibitory concentration (IC50). We utilized the IC50 of paclitaxel obtained with LDH assay to examine the anti-tumor effect of paclitaxel and co-administration of GSSSG using the trypan blue exclusion assay. […] MDA-MB-231 cells were seeded 5.6×10,000/well in a 6-well plate and incubated overnight. […] After being stripped by 0.25% trypsin, live cells were counted under 0.04% trypan blue. Five wells were evaluated per group.

`N[C@@H](CCC(=O)N[C@@H](CSSSC[C@H](NC(=O)CC[C@H](N)C(=O)O)C(=O)NCC(=O)O)C(=O)NCC(=O)O)C(=O)O` [GSSSG, glutathione trisulfide]: in data set [1], the “plasma level of GSSSG” value came to 58 nM. The molecule `CC(=O)O[C@H]1C(=O)[C@@]2(C)[C@H]([C@H](OC(=O)c3ccccc3)[C@]3(O)C[C@H](OC(=O)[C@H](O)[C@@H](NC(=O)c4ccccc4)c4ccccc4)C(C)=C1C3(C)C)[C@]1(OC(C)=O)CO[C@@H]1C[C@@H]2O` [paclitaxel, Paclitaxel, reference compound] yielded an IC50 in data set [2] of 1660 nM.

For the origin of these results see patent US20260097091A1, “ADMINISTRATION OF GLUTATHIONE TRISULFIDE TO AMELIORATE PERIPHERAL NEUROPATHY” (The General Hospital Corporation, priority 2022, published 2026).
